Series [1] can be described thus: NDMA carcinogenicity / acceptable intake from CPDB toxicological data (TD50 linear extrapolation, rodent carcinogenicity data). It is filed as in vivo. The note with it: 0.0959 μg÷300 mg. Here is the method: According to the toxicological data in the FDA according to the Carcinogenic Potency Database (CPDB database), the NDMA acceptable daily intake is set at about 0.096 μg. On Sep. 13, 2019, the FDA released a safety warning that some Ranitidine-based drugs (including the brand-name drug Zantac) contain the impurity of N-nitrosodimethylamine (NDMA). Subsequently, China launched special inspections and testing on NDMA for this variety.

For series [2] the following is noted: cited from earlier work.
The conditions of series [3]: cited from earlier work. The source holds these as a separate data set.

As to `CN(C)N=O` [NDMA, N-nitrosodimethylamine], the “limit value of the impurity NDMA in Ranitidine hydrochloride capsules” value in series [1] is given as “≈ 320 ng/g”. Moreover, the “NDMA acceptable daily intake” value in series [2] (FDA, according to CPDB database) is given as “about 0.096 μg”. The carcinogen class entry in series [2] (in vivo) is recorded as “class-2A carcinogen”. Besides, in series [3], the solubility in dichloromethane result was “almost insoluble” and the solubility in water result was “readily soluble”.
Turning to `CNC(=C[N+](=O)[O-])NCCSCc1ccc(CN(C)C)o1` [Ranitidine], in series [3], the solubility in dichloromethane result is “almost insoluble” and the solubility in water entry is recorded as “readily soluble”.

The record behind these values is patent US12601718B2, “Method for pretreating ranitidine hydrochloride sample” (Hunan Institute for Drug Inspection and Testing, priority 2022, dated 2026).
